Assay [1] has as its system alpha-glucosidase activity of rat intestinal acetone powder extract. Nature of the assay: Rat digestive enzyme assay, PNP α-D-glucoside substrate. The format is biochemical. On the procedure:
(§1) Rat intestinal acetone powder extract was purchased from Sigma (11630 lot SLBB6071V) to give results more closely related to digestion. 100 mg of the acetone powder was mixed with 1 ml cold PBS homogenised, sonicated briefly and then spun at 12K rpm for 3 mins.

For the next assay, the system named is rodent pancreatic cell. The following applies: rodent pancreatic cell studies; cited from earlier work.
The conditions of assay [2]: in vivo; cited from earlier work.
In assay [3] the test system is digestive enzymes of rat intestinal acetone powder extract. Nature of the assay: Rat digestive enzyme assays, all activities measured. The format is biochemical. How it is done: as §1

Consider `OC[C@H]1NCC[C@@H](O)[C@@H]1O` [fagomine, 1,2-dideoxynojirimycin], for which, in assay [1], the “inhibition of the alpha-glucosidase activity (in words)” value is listed as “inhibited”. The “glucose induced-insulin secretion (in words)” value in the assay on rodent pancreatic cell was “potentiate glucose induced-insulin secretion”. In assay [2], the “effective dose against health risks of excessive intake of fast-digestible carbohydrates” value is given as 1 mg/kg and the “postprandial blood glucose (in words)” value is given as “lowers postprandial blood glucose”.
Take `OC[C@H]1NCC[C@H](O)[C@@H]1O` [3-epifagomine]: the “inhibition of the digestive enzymes / activities measured (in words)” value in assay [3] is listed as “inhibited none of the activities measured”.
As for `OC[C@H]1NCC[C@H](O)[C@H]1O` [3,4-diepi fagomine, 3,4-diepifagomine], the “inhibition of the digestive enzymes / activities measured (in words)” value in assay [3] is given as “inhibited none of the activities measured”.

(Values after patent publication US20160213733A1, “CHARACTERIZATION OF RICE” (Phytoquest Limited, priority 2013, published 2016).)
